Test results taken from patent publication US6602525B1 (The Procter & Gamble Company, priority 2001, dated 2003).
Values joined by “and” are separate entries in the source; they are usually repeats but may differ in a detail not shown here. Identical values can stand only once.

Assays:
Assay type in all cases: cell-based
[1] = system: Enterococcus faecalis; test: Checkerboard synergy test, nitrofurantoin and uva ursi; conditions: E. faecalis isolates 21-30
Text: (§1) The checkerboard (or chessboard) method is used to assess the antimicrobial combination in vitro against the following selection of Gram-positive and Gram-negative pathogens including: Escherichia coli, Klebsiella pneumoniae, Proteus mirabilis, Serratia marcescens, Staphylococcus saprophyticus, Pseudomonas aeruginosa, and Enterococcus faecalis. […] Furthermore, the combination of nitrofurantoin and uva ursi is synergistic against four of the seven species tested, in particular E. coli, S. marcescens, P. mirabilis, and P. aeruginosa. […] [table] […] Following testing, the FIC index was calculated for each isolate panel to determine whether synergy, additivity, or antagonism occurred. […] For additivity, the FIC index is 1. For antagonism, the FIC index is 2.

[2] = system: Staphylococcus saprophyticus; test: as above; conditions: nitrofurantoin alone, S. saprophyticus isolates 61-70
Text: as §1

[3] = system: Proteus mirabilis; test: as above; conditions: nitrofurantoin alone, P. mirabilis isolates 41-50
Text: as §1

[4] = system: Pseudomonas aeruginosa; test: as above; conditions: P. aeruginosa isolates 1-10
Text: as §1

[5] = system: Enterococcus faecalis; test: Pre-test MIC, NCCLS microbroth dilution; conditions: nitrofurantoin alone, E. faecalis, one value per isolate (Isolate ID 21-30)
Protocol: (§2) Methods for Dilution Antimicrobial Susceptibility Tests for Bacteria That Grow Aerobically; Approved Standard (Fifth Edition) (2000). These standards are as follows: [table] Nitrofurantoin was added to cation-adjusted Mueller-Hinton Broth (hereinafter “CAMHB”) and dissolved. […] The uva ursi extract was serially diluted in water. For each test concentration, the final dilution was performed in CAMHB providing dilutions of 1:20 to 1:2048.

[6] = system: Staphylococcus saprophyticus; test: Pre-test MIC, NCCLS microbroth dilution; conditions: nitrofurantoin alone, S. saprophyticus, one value per isolate (Isolate ID 61-70)
Protocol: as §2

[7] = system: Pseudomonas aeruginosa; test: Pre-test MIC, NCCLS microbroth dilution
Protocol: as §2

[8] = system: Serratia marcescens; test: Pre-test MIC, NCCLS microbroth dilution; conditions: nitrofurantoin alone, S. marcescens, one value per isolate (Isolate ID 11-20)
Protocol: as §2

[9] = checkerboard, nitrofurantoin alone

With `O=C1CN(/N=C/c2ccc([N+](=O)[O-])o2)C(=O)N1` [Nitrofurantoin, N-(5-nitro-2-furfurylidene)-1-aminohydantoin] as the compound, how does the MIC ([1]; Enterococcus faecalis, read-out: MIC Nitrofurantoin, checkerboard, nitrofurantoin alone) read?
Its MIC is 16 µg/mL.

What about the “MIC Nitrofurantoin” value [1, 9] of the same compound?
The value was 8 µg/mL.

And the “MIC Nitrofurantoin” value [2]?
The value was 8 µg/mL.

And the “MIC Nitrofurantoin” value [3]?
The value was 128 µg/mL.

And the MIC ([4]; Pseudomonas aeruginosa, read-out: MIC Nitrofurantoin, checkerboard, nitrofurantoin alone)?
Its MIC is greater than 512 µg/mL.

What about the “MIC Nitrofurantoin” value [4, 9] of the same compound?
The value was >512 µg/mL and 512 µg/mL.

And the “MIC Nitrofurantoin” value [5]?
The value was 8 to 64 µg/mL.

What about the “MIC Nitrofurantoin” value [6] of the same compound?
Its value is 8 to 32 µg/mL.

What about the MIC ([7]; Pseudomonas aeruginosa, read-out: Nitrofurantoin MIC) of the same compound?
The MIC was greater than 512 µg/mL.

What about the “Nitrofurantoin MIC” value ([7]; pre-test, nitrofurantoin alone, P. aeruginosa, one value per isolate (Isolate ID 1-10)) of the same compound?
The value was greater than 512 µg/mL.

And the “MIC Nitrofurantoin” value [8]?
The value was 64 to 512 µg/mL.
